Measured values: US20060258739A1, “Dihydrobenzofuran derivatives and uses therof” (Wyeth, priority 2005, published 2006)
pKd, pKi: −log10 of the molar value.

Target: T1, human 5-hydroxytryptamine-2C (h5-HT2C) receptor (Homo sapiens, UniProt P28335)
T1 construct: expressed in transfected cells; host or cells: CHO (Chinese Hamster Ovary) cells; membrane preparation
T1 sequence (P28335 33-458): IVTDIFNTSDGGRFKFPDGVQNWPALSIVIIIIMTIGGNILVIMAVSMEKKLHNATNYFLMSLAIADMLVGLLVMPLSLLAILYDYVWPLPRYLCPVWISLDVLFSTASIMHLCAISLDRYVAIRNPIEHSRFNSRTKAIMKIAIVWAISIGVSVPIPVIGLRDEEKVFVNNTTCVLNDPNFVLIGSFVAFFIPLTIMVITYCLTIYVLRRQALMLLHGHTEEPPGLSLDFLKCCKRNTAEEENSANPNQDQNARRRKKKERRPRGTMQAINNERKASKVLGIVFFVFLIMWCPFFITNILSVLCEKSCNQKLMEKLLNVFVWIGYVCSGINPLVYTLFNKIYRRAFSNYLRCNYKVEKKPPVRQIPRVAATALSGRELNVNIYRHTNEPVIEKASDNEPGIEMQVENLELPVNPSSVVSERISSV
Assay: [125I]DOI radioligand binding to membranes of CHO cells expressing the h5-HT2C receptor

SMILES | pKd (read-out: dissociation constant, KD of [125I] DOI, saturation binding with increasing concentrations of [125I]DOI) | pKi (displacement of [125I]DOI, CHO cell membranes, room temperature 60 min, read-out: Ki (95% confidence interval))
COc1cc(CC(C)N)c(OC)cc1I (centres unmarked) [[^125I] DOI] | 9.40 | 
CSc1ccc2c(c1)C(N1CCN(C)CC1)Cc1ccccc1S2 (centres unmarked) [Methiothepin] |  | 8.34
